In patent US12595266B2, “Pesticidally active heterocyclic derivatives with sulfur containing substituents” (SYNGENTA CROP PROTECTION AG, priority 2020, dated 2026):

Tests used:
Format in all cases: in vivo
[1] = tested on: Plutella xylostella (Diamond Back Moth); assay: Activity against Plutella xylostella (diamond back moth); conditions: 192 h, application rate of 200 ppm, artificial diet, Plutella eggs, 8 days after infestation, read-out: effect in at least one of the two categories (mortality or growth inhibition)
Protocol: Example B7: Activity Against Plutella xylostella (Diamond Back Moth)
24-well microtiter plates with artificial diet were treated with aqueous test solutions prepared from 10′000 ppm DMSO stock solutions by pipetting. After drying, Plutella eggs were pipetted through a plastic stencil onto a gel blotting paper and the plate was closed with it. The samples were assessed for mortality and growth inhibition in comparison to untreated samples 8 days after infestation.

[2] = tested on: Carpocapsa (Cydia) Pomonella (Codling Moth); assay: Activity against Carpocapsa (Cydia) pomonella (codling moth), larvicide, feeding/contact; conditions: 336 h, application rate of 12.5 ppm, paraffin-coated diet cubes sprayed, L1 larvae, 14 days after infestation, 26-27° C.
Protocol: Example B10: Activity Against Carpocapsa (Cydia) Pomonella (Codling Moth) Larvicide, Feeding/Contact
Diet cubes coated with paraffin were sprayed with diluted test solutions in an application chamber. After drying off the treated cubes (10 replicates) were infested with 1 L1 larvae. Samples were incubated at 26-27° C. and checked 14 days after infestation for mortality and growth inhibition.

[3] = tested on: Spodoptera littoralis (Egyptian Cotton Leaf Worm); assay: Activity against Spodoptera littoralis (Egyptian cotton leaf worm); conditions: foliar, 72 h, application rate of 200 ppm, cotton leaf discs sprayed, L1 larvae, 3 days after infestation, read-out: control (at least one of mortality, anti-feedant effect, growth inhibition)
Protocol: Example B8: Activity Against Spodoptera littoralis (Egyptian Cotton Leaf Worm)
Cotton leaf discs were placed onto agar in 24-well microtiter plates and sprayed with aqueous test solutions prepared from 10′000 ppm DMSO stock solutions. After drying the leaf discs were infested with five L1 larvae. The samples were assessed for mortality, anti-feeding effect, and growth inhibition in comparison to untreated samples 3 days after infestation. Control of Spodoptera littoralis by a test sample is given when at least one of the categories mortality, anti-feedant effect, and growth inhibition is higher than the untreated sample.

[4] = tested on: Chilo suppressalis (Striped Rice Stemborer); assay: Activity against Chilo suppressalis (striped rice stemborer); conditions: 144 h, application rate of 200 ppm, artificial diet, L2 larvae, 6 days after infestation, read-out: control (at least one of mortality, anti-feedant effect, growth inhibition)
Protocol: Example B2: Activity Against Chilo suppressalis (Striped Rice Stemborer)
24-well microtiter plates with artificial diet were treated with aqueous test solutions prepared from 10′000 ppm DMSO stock solutions by pipetting. After drying, the plates were infested with L2 larvae (6-8 per well). The samples were assessed for mortality, anti-feeding effect, and growth inhibition in comparison to untreated samples 6 days after infestation. Control of Chilo suppressalis by a test sample is given when at least one of the categories mortality, anti-feedant effect, and growth inhibition is higher than the untreated sample.

[5] = tested on: Diabrotica balteata (Corn Root Worm); assay: Activity against Diabrotica balteata (corn root worm); conditions: 96 h, application rate of 200 ppm, maize sprouts sprayed, L2 larvae, 4 days after infestation, read-out: effect in at least one of the two categories (mortality or growth inhibition)
Protocol: Example B3: Activity Against Diabrotica balteata (Corn Root Worm)
Maize sprouts placed onto an agar layer in 24-well microtiter plates were treated with aqueous test solutions prepared from 10′000 ppm DMSO stock solutions by spraying. After drying, the plates were infested with L2 larvae (6 to 10 per well). The samples were assessed for mortality and growth inhibition in comparison to untreated samples 4 days after infestation.

[6] = tested on: Euschistus heros (Neotropical Brown Stink Bug); assay: Activity against Euschistus heros (neotropical brown stink bug); conditions: 120 h, application rate of 200 ppm, soybean leaves sprayed, N2 nymphs, 5 days after infestation, read-out: effect in at least one of the two categories (mortality or growth inhibition)
Protocol: Example B4: Activity Against Euschistus heros (Neotropical Brown Stink Bug)
Soybean leaves on agar in 24-well microtiter plates were sprayed with aqueous test solutions prepared from 10′000 ppm DMSO stock solutions. After drying the leaves were infested with N2 nymphs. The samples were assessed for mortality and growth inhibition in comparison to untreated samples 5 days after infestation.

[7] = tested on: Bemisia tabaci (Cotton White Fly); assay: Activity against Bemisia tabaci (cotton white fly), feeding/contact activity; conditions: foliar, 144 h, application rate of 200 ppm, cotton leaf discs sprayed, adult white flies, 6 days after incubation
Protocol: Example B1: Activity Against Bemisia tabaci (Cotton White Fly) Feeding/Contact Activity
Cotton leaf discs were placed on agar in 24-well microtiter plates and sprayed with aqueous test solutions prepared from 10′000 ppm DMSO stock solutions. After drying the leaf discs were infested with adult white flies. The samples were checked for mortality 6 days after incubation.

[8] = tested on: Myzus persicae (Green Peach Aphid); assay: Activity against Myzus persicae (green peach aphid), systemic activity; conditions: 144 h, test rate of 24 ppm, roots of infested pea seedlings in test solution (systemic), 6 days
Protocol: Example B9: Activity Against Myzus persicae (Green Peach Aphid) Systemic Activity
Roots of pea seedlings infested with an aphid population of mixed ages were placed directly into aqueous test solutions prepared from 10′000 DMSO stock solutions. The samples were assessed for mortality 6 days after placing seedlings into test solutions.

[9] = tested on: Myzus persicae (Green Peach Aphid); assay: Activity against Myzus persicae (green peach aphid), feeding/contact activity; conditions: foliar, 144 h, application rate of 200 ppm, sunflower leaf discs sprayed, aphid population of mixed ages, 6 days after infestation
Protocol: Example B6: Activity Against Myzus persicae (Green Peach Aphid) Feeding/Contact Activity
Sunflower leaf discs were placed onto agar in a 24-well microtiter plate and sprayed with aqueous test solutions prepared from 10′000 ppm DMSO stock solutions. After drying, the leaf discs were infested with an aphid population of mixed ages. The samples were assessed for mortality 6 days after infestation.

CCS(=O)(=O)c1cc(C(C)(C)C#N)cnc1N1Cc2cc3c(cc2C1=O)OC(F)(F)O3 [Compound P22, 2-[6-(2,2-difluoro-7-oxo-5H-[1,3]dioxolo[4,5-f]isoindol-6-yl)-5-ethylsulfonyl-3-pyridyl]-2-methyl-propanenitrile]
≥ 80%: percent effect (mortality or growth inhibition) at 200 ppm [1] | mortality at 12.5 ppm [2] | percent control (mortality, anti-feedant effect or growth inhibition) at 200 ppm [3] | percent control (mortality, anti-feedant effect or growth inhibition) at 200 ppm [4] | percent effect (mortality or growth inhibition) at 200 ppm [5] | percent effect (mortality or growth inhibition) at 200 ppm [6] | mortality at 200 ppm [7]

CCS(=O)(=O)c1c(N2Cc3cc4c(cc3C2=O)OC(F)(F)O4)nc(C2CC2)n1C [Compound P24, 6-(2-cyclopropyl-5-ethylsulfonyl-1-methyl-imidazol-4-yl)-2,2-difluoro-5H-[1,3]dioxolo[4,5-f]isoindol-7-one]
≥ 80%: mortality at 24 ppm [8] | percent effect (mortality or growth inhibition) at 200 ppm [1] | percent control (mortality, anti-feedant effect or growth inhibition) at 200 ppm [3] | mortality at 200 ppm [9] | percent control (mortality, anti-feedant effect or growth inhibition) at 200 ppm [4] | percent effect (mortality or growth inhibition) at 200 ppm [5] | percent effect (mortality or growth inhibition) at 200 ppm [6]

CCS(=O)(=O)c1c(N2Cc3cc4c(cc3C2=O)OC(F)(F)O4)nc(-c2cnn(CC(F)(F)F)c2)n1C [Compound P14, 6-[5-ethylsulfonyl-1-methyl-2-[1-(2,2,2-trifluoroethyl)pyrazol-4-yl]imidazol-4-yl]-2,2-difluoro-5H-[1,3]dioxolo[4,5-f]isoindol-7-one]
≥ 80%: mortality at 24 ppm [8] | percent effect (mortality or growth inhibition) at 200 ppm [1] | percent control (mortality, anti-feedant effect or growth inhibition) at 200 ppm [3] | mortality at 200 ppm [9] | percent control (mortality, anti-feedant effect or growth inhibition) at 200 ppm [4] | percent effect (mortality or growth inhibition) at 200 ppm [5] | percent effect (mortality or growth inhibition) at 200 ppm [6]

CCS(=O)(=O)c1cc(C(C)(F)F)cnc1N1Cc2cc3c(cc2C1=O)OC(F)(F)O3 [Compound P23, 6-[5-(1,1-difluoroethyl)-3-ethylsulfonyl-2-pyridyl]-2,2-difluoro-5H-[1,3]dioxolo[4,5-f]isoindol-7-one]
≥ 80%: percent effect (mortality or growth inhibition) at 200 ppm [1] | mortality at 12.5 ppm [2] | percent control (mortality, anti-feedant effect or growth inhibition) at 200 ppm [3] | percent control (mortality, anti-feedant effect or growth inhibition) at 200 ppm [4] | mortality at 200 ppm [7]

CCS(=O)(=O)c1c(N2Cc3cc4c(cc3C2=O)OC(F)(F)O4)nc(-c2ncccn2)n1C [Compound P15, 6-(5-ethylsulfonyl-1-methyl-2-pyrimidin-2-yl-imidazol-4-yl)-2,2-difluoro-5H-[1,3]dioxolo[4,5-f]isoindol-7-one]
≥ 80%: mortality at 24 ppm [8] | percent effect (mortality or growth inhibition) at 200 ppm [1] | percent control (mortality, anti-feedant effect or growth inhibition) at 200 ppm [3] | mortality at 200 ppm [9] | percent control (mortality, anti-feedant effect or growth inhibition) at 200 ppm [4] | percent effect (mortality or growth inhibition) at 200 ppm [5] | percent effect (mortality or growth inhibition) at 200 ppm [6]

CCS(=O)(=O)c1c(N2Cc3cc4c(cc3C2=O)OC(F)(F)O4)nc(-c2cnn(CC(F)F)c2)n1C [Compound P4, 6-[2-[1-(2,2-difluoroethyl)pyrazol-4-yl]-5-ethylsulfonyl-1-methyl-imidazol-4-yl]-2,2-difluoro-5H-[1,3]dioxolo[4,5-f]isoindol-7-one]
≥ 80%: mortality at 24 ppm [8] | percent effect (mortality or growth inhibition) at 200 ppm [1] | mortality at 200 ppm [9] | percent control (mortality, anti-feedant effect or growth inhibition) at 200 ppm [4] | percent effect (mortality or growth inhibition) at 200 ppm [5] | percent effect (mortality or growth inhibition) at 200 ppm [6]

CCS(=O)(=O)c1ccc(-c2ncccn2)nc1N1Cc2cc3c(cc2C1=O)OC(F)(F)O3 [Compound P16, 6-(3-ethylsulfonyl-6-pyrimidin-2-yl-2-pyridyl)-2,2-difluoro-5H-[1,3]dioxolo[4,5-f]isoindol-7-one]
≥ 80%: mortality at 24 ppm [8] | percent effect (mortality or growth inhibition) at 200 ppm [1] | percent control (mortality, anti-feedant effect or growth inhibition) at 200 ppm [3] | mortality at 200 ppm [9] | percent control (mortality, anti-feedant effect or growth inhibition) at 200 ppm [4] | percent effect (mortality or growth inhibition) at 200 ppm [5] | percent effect (mortality or growth inhibition) at 200 ppm [6]

CCS(=O)(=O)c1c(N2Cc3cc4c(cc3C2=O)OC(F)(F)O4)nc(-c2cnn(CC3CC3)c2)n1C [Compound P9, 6-[2-[1-(cyclopropylmethyl)pyrazol-4-yl]-5-ethylsulfonyl-1-methyl-imidazol-4-yl]-2,2-difluoro-5H-[1,3]dioxolo[4,5-f]isoindol-7-one]
≥ 80%: mortality at 24 ppm [8] | percent effect (mortality or growth inhibition) at 200 ppm [1] | percent control (mortality, anti-feedant effect or growth inhibition) at 200 ppm [3] | mortality at 200 ppm [9] | percent control (mortality, anti-feedant effect or growth inhibition) at 200 ppm [4] | percent effect (mortality or growth inhibition) at 200 ppm [5] | percent effect (mortality or growth inhibition) at 200 ppm [6]

CCS(=O)(=O)c1c(N2Cc3cc4c(cc3C2=O)OC(F)(F)O4)nc(-c2cnn(C(F)F)c2)n1C [Compound P20, 6-[2-[1-(difluoromethyl)pyrazol-4-yl]-5-ethylsulfonyl-1-methyl-imidazol-4-yl]-2,2-difluoro-5H-[1,3]dioxolo[4,5-f]isoindol-7-one]
≥ 80%: percent effect (mortality or growth inhibition) at 200 ppm [1] | percent control (mortality, anti-feedant effect or growth inhibition) at 200 ppm [3] | percent control (mortality, anti-feedant effect or growth inhibition) at 200 ppm [4] | percent effect (mortality or growth inhibition) at 200 ppm [5] | percent effect (mortality or growth inhibition) at 200 ppm [6] | mortality at 200 ppm [7]
